Results from article PMC11894060, “Accelerating discovery of bioactive ligands with pharmacophore-informed generative models” (Nature Communications, 2025).
Like-named read-outs stand apart in the source and are kept apart here.

How the values were obtained:
PLK1 [1] = target: T1, PLK1 (Homo sapiens, UniProt P53350); experiment: PLK1 kinase ADP-Glo assay (in vitro kinase activity); format: biochemical; set-up: 2 μl of PLK1 enzyme (15 ng/well); conditions: for selectivity for PLK1 compared to other Plks (in words): PLK1 vs PLK2/PLK3
Experimental: (§1) In vitro kinase activity assays were conducted through ADP-Glo assay services provided by Conradbio (Conradbio, China). The protocol for the PLK1 assay is described as follows (protocols for other kinases are very similar). Enzyme, substrate, ATP, and compounds were diluted in a Kinase Buffer composed of 40 mM Tris (pH 7.5), 20 mM MgCl2, 0.1 mg/ml BSA, and 50 μM DTT. In a 384-well low-volume plate, 1 μl of the compound or 5% dimethyl sulfoxide (DMSO), 2 μl of PLK1 enzyme (15 ng/well), and 2 μl of substrate/ATP mix (final concentration: 20 μM ATP, 0.2 μg/μl Casein) were added to each well. The plate was then incubated at 25 °C for 60 min to allow for kinase activity. Following the enzymatic reaction, 5 μl of ADP-Glo^TM Reagent was added to each well, and the plate was incubated at 25 °C for an additional 40 min. Subsequently, 10 μl of Kinase Detection Reagent was added, and the plate was incubated for a final 30 min at 25 °C. Luminescence was recorded with an integration time of 0.5 s.
(§2) IC50 values were calculated using Prism 8 by fitting the following equation:4 Y=Bottom+(Top−Bottom)/(1+10^(logIC50−X)×HillSlope), where X is a log of concentration, Y is a response, and top and bottom are the responses of controls. Each assay was repeated at least three times, and we computed the mean and standard deviation for the values.

PLK1 [2] = target: T1, PLK1; set-up: method as in ExCAPE-DB [85]; conditions: known PLK1 ligands carrying the core substructures; ref ExCAPE-DB [85]; cited from earlier work
PLK1 [3] = target: T1, PLK1; experiment: In-house enzymatic activity (peer review response); format: biochemical; conditions: Onvansertib vs. Volasertib
PLK2 [4] = target: T2, PLK2 (Homo sapiens, UniProt Q9NYY3); experiment: Activity against PLK2 (peer review response); format: biochemical
PLK3 [5] = target: T3, PLK3 (Homo sapiens, UniProt Q9H4B4); experiment: Activity against PLK3 (peer review response); format: biochemical; conditions: source not stated
PLK2 [6] = target: T2, PLK2; experiment: PLK2 ADP-Glo kinase assay (selectivity); format: biochemical; conditions: read-out: IC50 against PLK2
Experimental: as §1, §2

PLK3 [7] = target: T3, PLK3; experiment: PLK3 ADP-Glo kinase assay (selectivity); format: biochemical; conditions: read-out: IC50 against PLK3
Experimental: as §1, §2

FAK kinase = FAK kinase (Homo sapiens, UniProt Q05397); experiment: FAK ADP-Glo kinase assay (selectivity); format: biochemical; conditions: for IC50: ADP-Glo assay, read-out: IC50 against FAK; for selectivity for PLK1 over FAK: FAK IC50 versus PLK1 IC50
Experimental: as §1, §2

HCT116 cell line = experiment: CellTiter-Glo cell viability assay on HCT116; format: cell-based, human
Experimental: Cell viability assays were conducted through CellTiter-Glo assay services provided by Conradbio (Conradbio, China). The protocol is briefly described as follows. Firstly, when the cell confluence reaches 80%, cells are collected and counted. Subsequently, a cell suspension is diluted, and 80 μl of the suspension is seeded into each well of a 96-well U-bottom plate. The plate is then placed in a 37 °C, 5% CO2 incubator for optimal cell growth. After 24 h of incubation, a 20 μl aliquot of a diluted compound solution is added to specific wells on the plate, 0.5% dimethyl sulfoxide (DMSO) is used as a negative control. Following the compound addition, the plate is returned to the incubator for an additional day. Upon completion of the incubation period, the CellTiter-Glo assay (Promega) is performed according to the manufacturer’s manual. This assay is designed to measure cell viability based on luminescence, providing insights into the impact of the compounds on cellular health. Finally, data calculation is carried out to analyze the results of the CTG assay using Prism 8.

[8] = Preliminary in vivo pharmacokinetic experiments in mice
[9] = ADP-Glo assay, mean ± standard deviation, n = 3 replicates, read-out: IC50 against PLK1
[10] = ADP-Glo assay, read-out: IC50 against PLK1 (bound stated in text)
[11] = IC50 with 90% confidence interval, read-out: 90% CI of IC50 against PLK1
[12] = IC50 with 95% confidence interval, read-out: 95% CI of IC50 against PLK1
[13] = IC50 with 99% confidence interval, read-out: 99% CI of IC50 against PLK1

T2 sequence (Q9NYY3 whole entry): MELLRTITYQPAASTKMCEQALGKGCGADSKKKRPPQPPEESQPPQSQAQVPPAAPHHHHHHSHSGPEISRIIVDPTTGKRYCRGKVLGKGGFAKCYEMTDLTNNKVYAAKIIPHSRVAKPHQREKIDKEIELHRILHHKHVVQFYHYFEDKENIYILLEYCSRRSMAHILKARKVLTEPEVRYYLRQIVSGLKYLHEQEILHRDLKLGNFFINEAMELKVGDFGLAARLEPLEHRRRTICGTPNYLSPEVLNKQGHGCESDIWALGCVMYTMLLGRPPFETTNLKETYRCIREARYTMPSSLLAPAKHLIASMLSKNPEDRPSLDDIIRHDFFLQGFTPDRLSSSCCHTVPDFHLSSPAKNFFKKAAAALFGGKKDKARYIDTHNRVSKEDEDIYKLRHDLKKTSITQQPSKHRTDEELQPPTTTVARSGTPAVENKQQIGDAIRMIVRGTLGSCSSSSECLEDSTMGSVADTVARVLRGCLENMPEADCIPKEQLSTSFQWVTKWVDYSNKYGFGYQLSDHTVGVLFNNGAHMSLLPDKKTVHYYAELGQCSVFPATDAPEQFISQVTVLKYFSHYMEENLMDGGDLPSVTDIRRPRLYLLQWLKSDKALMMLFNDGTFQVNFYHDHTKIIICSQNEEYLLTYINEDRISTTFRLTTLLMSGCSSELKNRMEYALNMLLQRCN
T1 sequence (P53350 whole entry): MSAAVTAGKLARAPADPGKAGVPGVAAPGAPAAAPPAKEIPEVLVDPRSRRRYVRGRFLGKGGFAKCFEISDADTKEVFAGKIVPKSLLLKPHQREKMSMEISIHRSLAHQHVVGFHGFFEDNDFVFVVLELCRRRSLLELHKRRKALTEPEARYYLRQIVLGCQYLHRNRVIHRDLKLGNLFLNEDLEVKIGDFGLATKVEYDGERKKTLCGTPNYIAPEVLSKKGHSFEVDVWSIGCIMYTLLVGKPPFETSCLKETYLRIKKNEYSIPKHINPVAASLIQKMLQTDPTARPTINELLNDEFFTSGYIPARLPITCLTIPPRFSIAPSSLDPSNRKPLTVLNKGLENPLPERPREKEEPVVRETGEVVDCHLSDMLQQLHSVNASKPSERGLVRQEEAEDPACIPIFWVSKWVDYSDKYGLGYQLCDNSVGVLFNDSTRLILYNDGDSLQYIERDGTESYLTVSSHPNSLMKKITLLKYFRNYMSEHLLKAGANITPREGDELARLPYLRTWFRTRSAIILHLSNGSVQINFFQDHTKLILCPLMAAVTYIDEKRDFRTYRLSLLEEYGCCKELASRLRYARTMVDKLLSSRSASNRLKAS
T3 sequence (Q9H4B4 whole entry): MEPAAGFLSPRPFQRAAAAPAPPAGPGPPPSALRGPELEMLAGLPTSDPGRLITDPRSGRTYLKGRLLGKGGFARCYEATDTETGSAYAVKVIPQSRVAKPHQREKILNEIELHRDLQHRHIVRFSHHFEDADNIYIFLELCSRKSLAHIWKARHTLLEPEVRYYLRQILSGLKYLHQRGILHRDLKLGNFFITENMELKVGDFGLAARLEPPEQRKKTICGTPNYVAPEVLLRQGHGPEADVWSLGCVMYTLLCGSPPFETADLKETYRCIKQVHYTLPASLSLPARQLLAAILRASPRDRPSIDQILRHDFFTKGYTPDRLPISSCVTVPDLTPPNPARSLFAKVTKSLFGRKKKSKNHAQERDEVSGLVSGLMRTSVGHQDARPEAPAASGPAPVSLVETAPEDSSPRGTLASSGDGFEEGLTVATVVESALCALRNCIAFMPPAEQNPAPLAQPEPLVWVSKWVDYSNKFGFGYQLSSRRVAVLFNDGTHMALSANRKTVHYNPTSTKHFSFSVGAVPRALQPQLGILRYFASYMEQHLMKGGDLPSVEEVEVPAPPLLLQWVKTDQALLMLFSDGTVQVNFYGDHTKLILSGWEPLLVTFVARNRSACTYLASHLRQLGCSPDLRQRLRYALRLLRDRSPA
FAK kinase, sequence (Q05397 whole entry): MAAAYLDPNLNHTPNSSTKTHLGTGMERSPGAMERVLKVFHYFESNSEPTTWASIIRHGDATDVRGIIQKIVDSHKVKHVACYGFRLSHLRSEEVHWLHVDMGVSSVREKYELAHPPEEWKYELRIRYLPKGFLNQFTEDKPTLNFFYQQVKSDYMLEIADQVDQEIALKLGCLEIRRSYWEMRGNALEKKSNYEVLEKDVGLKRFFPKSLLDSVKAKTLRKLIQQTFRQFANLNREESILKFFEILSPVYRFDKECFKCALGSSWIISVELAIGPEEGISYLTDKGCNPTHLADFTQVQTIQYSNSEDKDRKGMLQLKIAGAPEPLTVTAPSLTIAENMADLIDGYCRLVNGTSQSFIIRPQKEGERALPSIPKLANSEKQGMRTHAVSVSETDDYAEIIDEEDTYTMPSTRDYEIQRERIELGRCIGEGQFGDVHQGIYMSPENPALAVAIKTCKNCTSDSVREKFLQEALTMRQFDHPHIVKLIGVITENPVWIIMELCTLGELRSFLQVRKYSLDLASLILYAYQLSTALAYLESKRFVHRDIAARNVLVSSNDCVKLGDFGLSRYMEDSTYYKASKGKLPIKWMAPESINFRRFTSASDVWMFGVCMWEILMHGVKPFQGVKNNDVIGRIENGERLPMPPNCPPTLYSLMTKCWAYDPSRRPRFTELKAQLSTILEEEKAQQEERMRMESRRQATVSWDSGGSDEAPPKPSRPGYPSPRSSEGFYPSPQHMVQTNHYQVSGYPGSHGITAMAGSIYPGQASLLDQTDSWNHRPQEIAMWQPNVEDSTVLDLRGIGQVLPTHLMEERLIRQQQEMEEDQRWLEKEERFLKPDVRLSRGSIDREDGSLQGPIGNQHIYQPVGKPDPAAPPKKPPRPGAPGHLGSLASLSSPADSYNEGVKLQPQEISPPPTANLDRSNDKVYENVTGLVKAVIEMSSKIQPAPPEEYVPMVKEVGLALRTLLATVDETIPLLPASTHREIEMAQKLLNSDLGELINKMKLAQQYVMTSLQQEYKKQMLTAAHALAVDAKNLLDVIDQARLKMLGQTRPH

SMILES | IC50 (PLK1 [1]; [9]) [nM] | IC50 (PLK1 [1]; [10]) [nM] | IC50 (PLK1 [1]; [11]) [nM] | IC50 (PLK1 [1]; [12]) [nM] | IC50 (PLK1 [1]; [13]) [nM] | pXC50 (PLK1 [2]) | also measured
COc1ccc(N2CCN(C)CC2)cc1Nc1ncc2ccn(-c3ccccc3-c3nc(C)no3)c2n1 [IIP0944] | > 10000 | – | – | – | – | – | –
COc1ccc(N2CCN(C)CC2)cc1Nc1ncc(C)c(Oc2ccccc2-n2ccnn2)n1 [IIP0945] | 927 ± 129 | < 1000 | 928 ± 122 | 928 ± 146 | 928 ± 192 | – | –
COc1cc2c(cc1Nc1nc(Nc3ccsc3C(N)=O)c3cc[nH]c3n1)N(C(=O)CN(C)C)CCC2 [GSK-2110236A] | – | – | – | – | – | 7.6 | –
CC[C@@H]1C(=O)N(C)c2cnc(Nc3ccc(C(=O)N[C@H]4CC[C@H](N5CCN(CC6CC6)CC5)CC4)cc3OC)nc2N1C(C)C [Volasertib] | – | – | – | – | – | – | enzymatic activity, in-house experiments (PLK1 [3]): 0.30 nM; selectivity compared to Onvansertib (in words) (PLK2 [4]; PLK1 vs PLK2 and PLK3): much worse selectivity; activity against PLK2 (in words) (PLK2 [4]; source not stated): low nanomolar; activity against PLK3 (in words) (PLK3 [5]): low nanomolar
Cc1cc(Oc2ccc(C#N)cc2)nc(NCc2ccccc2)n1 [PubChem CID 1927680] | – | – | – | – | – | 5.6 | –
COc1ccc(N2CCN(C)CC2)cc1Nc1ncc(C(F)(F)F)c(Oc2cccc3[nH]c(C(N)=O)cc23)n1 [IIP0942] | 37.6 | < 1000 | 37.6 ± 3.55 | 37.6 ± 4.23 | 37.6 ± 5.56 | – | IC50 (PLK2 [6]): > 1000 nM; selectivity for PLK1 compared to other Plks (in words) (PLK1 [1]): excellent; IC50 (PLK3 [7]): > 1000 nM; IC50 (FAK kinase): 87.4 nM; selectivity for PLK1 over FAK (FAK kinase): over two-fold
COc1ccc(N2CCN(C)CC2)cc1Nc1ncc(C)c(Oc2cccc3cc(C(N)=O)sc23)n1 [IIP0943] | 5.1 | < 1000 | 5.06 ± 1.64 | 5.06 ± 1.96 | 5.06 ± 2.57 | – | IC50 (PLK2 [6]): > 1000 nM; selectivity for PLK1 compared to other Plks (in words) (PLK1 [1]): high and excellent; inhibitory activity in HCT116 cell proliferation (in words) (HCT116 cell line; HCT116 cell line): submicromolar; IC50 (HCT116 cell line; Homo sapiens, HCT-116, CellTiter-Glo, mean ± standard deviation, n = 3 replicates, read-out: IC50 of cell proliferation inhibition, HCT116): 220 ± 3 nM; IC50 (PLK3 [7]): > 1000 nM; IC50 (FAK kinase): 264 nM; selectivity for PLK1 over FAK (FAK kinase): over 50 fold; half-life compared to Onvansertib (in words) [8]: prolonged half-life; oral bioavailability compared to Onvansertib ([8]; ratio to Onvansertib): over two-fold
CCS(=O)(=O)c1ccc2oc(Nc3ccc(C(C)C)cc3)nc2c1 [PubChem CID 2462953] | – | – | – | – | – | 5.6 | –
